pIC50: −log10 of the molar value.

Holding throughout (format): cell-based
Assay [1] relates to IL-2. Kind of assay: Inhibition of IL-2 release in human whole blood. The conditions noted are these: Concanavalin A + PMA, 20 h, read-out: IC 50 Human Whole Blood IL-2. The procedure:
(§1) Inhibition of cytokine IL-2, IL-4, IL-5 and TNF α was determined as described below.
(§2) Freshly collected HWB was diluted with RPMI medium (1:4.5) and added to a 96-well plate. Wells were incubated with desired concentrations of the inhibitor for 15 min. Cytokine release was induced by the addition of Concanavalin A (25 μg/ml)+Phorbol Myristate Acetate (50 ng/ml) for IL-2 & TNFα or with Phytohemagglutinin (5 μg/ml) for IL-4 & IL-5 and incubated at 37° C. in an atmosphere containing […]. Supernatant was collected after 20 h (IL-2 & TNFα) or 48 h (IL-4 & IL-5) for estimation of cytokines by ELISA. Data were analysed using GraphPad Prism. IC50 values for each compound were determined based on the percent inhibition due to the test compound compared to the control.

Assay [2] deals with IL-4. Kind of assay: Inhibition of IL-4 release in human whole blood. The note with it: Phytohemagglutinin, 48 h, read-out: IC 50 Human Whole Blood IL-4. As for the experimental part: as §1, §2
The subject of assay [3] is IL-4. Kind of assay: Inhibition of IL-4 release in PBMC. The conditions noted are these: Homo sapiens, Phytohemagglutinin, 48 h, read-out: IC 50 PBMC IL-4. As for the experimental part: as §1
as §2, with “PBMC from freshly” for “Freshly”, “were isolated by density gradient using Histopaque” for “was diluted with RPMI medium (1:4.5)”, “seeded in” for “added to”, “Cells” for “Wells”

Assay [4] concerns TNFα. Kind of assay: Inhibition of TNFα release in PBMC. The note with it: Homo sapiens, Concanavalin A + PMA, 20 h, read-out: IC 50 PBMC TNFα. As for the experimental part: as §1
as §2, with “PBMC from freshly” for “Freshly”, “were isolated by density gradient using Histopaque” for “was diluted with RPMI medium (1:4.5)”, “seeded in” for “added to”, “Cells” for “Wells”

The subject of assay [5] is IL-2. Kind of assay: Inhibition of IL-2 release in PBMC. The conditions noted are these: Homo sapiens, Concanavalin A + PMA, 20 h, read-out: IC 50 PBMC IL-2. The procedure:
as §1
as §2, with “PBMC from freshly” for “Freshly”, “were isolated by density gradient using Histopaque” for “was diluted with RPMI medium (1:4.5)”, “seeded in” for “added to”, “Cells” for “Wells”

The subject of assay [6] is IL-5. Kind of assay: Inhibition of IL-5 release in human whole blood. The note with it: Phytohemagglutinin, 48 h, read-out: IC 50 Human Whole Blood IL-5. The procedure:
as §1, §2

The subject of assay [7] is IL-5. Kind of assay: Inhibition of IL-5 release in PBMC. The note with it: Homo sapiens, Phytohemagglutinin, 48 h, read-out: IC 50 PBMC IL-5. The procedure:
as §1
as §2, with “PBMC from freshly” for “Freshly”, “were isolated by density gradient using Histopaque” for “was diluted with RPMI medium (1:4.5)”, “seeded in” for “added to”, “Cells” for “Wells”

For the next assay, the target named is CRAC channels (Homo sapiens (Human), UniProt Q96D31). Kind of assay: In-vitro CRAC channel inhibition assay in Jurkat cells (thapsigargin-induced calcium influx). As for the experimental part: Inhibition of CRAC channels was determined following thapsigargin (Sigma, Cat # T9033) induced endoplasmic calcium release in Jurkat cells. (see Yasurio Yonetoky et. al Bio. & Med. Chem. 14 (2006) 4750-4760). Cells were centrifuged and resuspended in equal volumes ° f Ca^2+ and Mg^2+ free Hanks buffer and Fluo-8 NW dye (ABD Bioquest, Inc., Sunnyvale, Calif.) loading solution at 2×10^5 cells/100 μl/well in 96-well black plate. Plate is incubated at 37° C./5% CO2 for 30 mM followed by further 15 mM incubation at room temperature. Test compounds (DMSO stocks diluted in Ca^2+ and Mg^2+ free Hanks buffer) at desired concentrations were added to the wells and incubated for […]. Thapsigargin (1 μM final concentration) was added to the wells and incubated for 15 min to inhibit the Sarco-endoplasmic reticulum Ca^2+ ATPase pump thereby depleting endoplasmic calcium and raising cytosolic calcium concentrations. Store-operated calcium entry was initiated by adding extracellular Ca^2+ to a final concentration of 1.8 mM. Fluorescence was monitored over […] on a plate reader (BMG Labtech., Germany) with excitation at 485 nm and an emission wavelength at 520 nm. Data were analyzed using GraphPad Prism. IC50 for each compound was determined based on the percent inhibition of thapsigargin-induced calcium influx into cells.

Assay [8] concerns TNFα. Kind of assay: Inhibition of TNFα release in human whole blood. The note with it: Concanavalin A + PMA, 20 h, read-out: IC 50 Human Whole Blood TNFα. As for the experimental part: as §1, §2

CRAC channels, sequence (Q96D31 whole entry): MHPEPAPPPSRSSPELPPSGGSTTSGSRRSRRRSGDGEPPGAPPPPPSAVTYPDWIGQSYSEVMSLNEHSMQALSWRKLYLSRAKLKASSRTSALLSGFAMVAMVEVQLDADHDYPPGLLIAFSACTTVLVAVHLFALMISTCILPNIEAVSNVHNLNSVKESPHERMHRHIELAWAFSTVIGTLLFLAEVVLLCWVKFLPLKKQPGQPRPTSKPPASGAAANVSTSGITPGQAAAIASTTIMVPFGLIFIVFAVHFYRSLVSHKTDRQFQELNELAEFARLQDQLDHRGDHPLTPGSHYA

With `O=C(Cn1nnc2ccccc21)Nc1ccc(-n2nc(C(F)(F)F)cc2C2CC2)cc1` [Example 20, 2-(1H-benzo[d][1,2,3]triazol-1-yl)-N-{4-[5-cyclopropyl-3-(trifluoromethyl)-1H-pyrazol-1-yl]phenyl}acetamide], the pIC50 in the assay on IL-2 [1] was 7.39; with IL-4 [2], 5.91; in the assay on IL-4 [3], 6.27; with TNFα [4] it was 6.86; with IL-2 [5], 6.42; in the assay with IL-5 [6] it was 6.79. Also, the pIC50 with IL-5 [7] was 6.83; at CRAC channels, 7.41; in the assay with TNFα [8] it was 7.45. The inhibition (commonly the relative decrease from the control value, in per cent) at 1 µM on CRAC channels (1 uM) came out at 100%.

(Values after patent US8993612B2, “Modulators of calcium release-activated calcium channel and methods for treatment of non-small cell lung cancer” (Rhizen Pharmaceuticals SA, priority 2009, dated 2015).)
